Experimental data: paper PMC7366380, “Discovery of a Potent and Selective Covalent Inhibitor and Activity-Based Probe for the Deubiquitylating Enzyme UCHL1, with Antifibrotic Activity” (Journal of the American Chemical Society, 2020)

What was measured:
BAP1 = molecular target: T1, BAP1 (Homo sapiens, UniProt Q92560); test: biochemical
T1 sequence (Q92560 1-729): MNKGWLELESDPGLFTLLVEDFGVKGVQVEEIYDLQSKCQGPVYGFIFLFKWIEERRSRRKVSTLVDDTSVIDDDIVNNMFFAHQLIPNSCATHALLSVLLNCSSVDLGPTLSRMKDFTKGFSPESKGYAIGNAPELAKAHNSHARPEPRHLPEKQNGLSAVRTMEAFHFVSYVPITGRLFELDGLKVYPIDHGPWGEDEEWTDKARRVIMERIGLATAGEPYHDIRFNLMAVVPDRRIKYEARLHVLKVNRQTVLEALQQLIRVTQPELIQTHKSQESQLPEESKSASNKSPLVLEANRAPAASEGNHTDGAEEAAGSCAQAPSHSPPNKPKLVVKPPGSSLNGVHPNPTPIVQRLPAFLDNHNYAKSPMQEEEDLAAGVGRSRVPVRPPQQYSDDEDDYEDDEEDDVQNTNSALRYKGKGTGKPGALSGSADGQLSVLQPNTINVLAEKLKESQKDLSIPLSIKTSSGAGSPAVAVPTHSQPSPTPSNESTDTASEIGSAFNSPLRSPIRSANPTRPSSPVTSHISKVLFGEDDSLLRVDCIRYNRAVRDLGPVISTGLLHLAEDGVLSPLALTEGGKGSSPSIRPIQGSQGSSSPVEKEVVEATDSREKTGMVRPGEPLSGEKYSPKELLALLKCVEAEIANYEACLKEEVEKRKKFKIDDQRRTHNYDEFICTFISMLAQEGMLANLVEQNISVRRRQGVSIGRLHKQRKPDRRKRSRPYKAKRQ

USP25 = molecular target: T2, USP25 (Homo sapiens, UniProt Q9UHP3); test: Biochemical DUB selectivity profiling assay: USP25; conditions: Ub-Lys-TAMRA 50 nM, buffer B; read-out: Biochemical IC50 range, USP25
T2 sequence (Q9UHP3 1-1055): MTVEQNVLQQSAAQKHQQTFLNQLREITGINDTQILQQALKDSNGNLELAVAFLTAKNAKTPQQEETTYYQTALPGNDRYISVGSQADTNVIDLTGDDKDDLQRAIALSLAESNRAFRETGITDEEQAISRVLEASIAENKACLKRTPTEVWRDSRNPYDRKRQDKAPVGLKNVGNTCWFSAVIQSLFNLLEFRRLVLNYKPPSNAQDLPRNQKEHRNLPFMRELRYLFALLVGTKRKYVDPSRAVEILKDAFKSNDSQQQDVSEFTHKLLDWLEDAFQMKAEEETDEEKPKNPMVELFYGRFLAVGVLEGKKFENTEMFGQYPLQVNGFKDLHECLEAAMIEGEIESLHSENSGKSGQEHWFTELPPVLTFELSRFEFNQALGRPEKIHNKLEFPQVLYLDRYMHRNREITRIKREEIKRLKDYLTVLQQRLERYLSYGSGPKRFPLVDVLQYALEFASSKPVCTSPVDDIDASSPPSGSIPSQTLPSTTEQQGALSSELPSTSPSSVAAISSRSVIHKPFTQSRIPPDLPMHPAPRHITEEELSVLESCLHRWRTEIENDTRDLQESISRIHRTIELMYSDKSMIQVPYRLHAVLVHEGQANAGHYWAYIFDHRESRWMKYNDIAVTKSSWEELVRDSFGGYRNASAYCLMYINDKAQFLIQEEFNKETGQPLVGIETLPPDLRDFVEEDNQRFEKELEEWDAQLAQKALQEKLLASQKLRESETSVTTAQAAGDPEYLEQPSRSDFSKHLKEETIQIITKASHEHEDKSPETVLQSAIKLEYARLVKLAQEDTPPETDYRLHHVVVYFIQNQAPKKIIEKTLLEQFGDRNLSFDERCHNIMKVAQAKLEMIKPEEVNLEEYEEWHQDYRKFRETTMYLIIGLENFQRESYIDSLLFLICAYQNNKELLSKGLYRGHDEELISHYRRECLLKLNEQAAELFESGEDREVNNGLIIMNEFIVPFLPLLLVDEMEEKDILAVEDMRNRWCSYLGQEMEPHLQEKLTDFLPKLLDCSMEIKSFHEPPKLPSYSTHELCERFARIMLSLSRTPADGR
Procedure: DUB Assay Substrate Substrate
Buffer Concentration (nM) […]
Sepharose® 4B resin (GE Healthcare).
10 kDa molecular weight cut-off (MWCO)).
Fractions containing protein
Protein concentration was […]
reaction volume of 21 μL. […]
compound (final concentration 5 nM).
IC50 values were determined
Biochemical DUB selectivity profiling assays […]
in 40 µL total reaction volume.

USP30 = molecular target: T3, USP30 (Homo sapiens, UniProt Q70CQ3); test: biochemical
T3 sequence (Q70CQ3 1-517): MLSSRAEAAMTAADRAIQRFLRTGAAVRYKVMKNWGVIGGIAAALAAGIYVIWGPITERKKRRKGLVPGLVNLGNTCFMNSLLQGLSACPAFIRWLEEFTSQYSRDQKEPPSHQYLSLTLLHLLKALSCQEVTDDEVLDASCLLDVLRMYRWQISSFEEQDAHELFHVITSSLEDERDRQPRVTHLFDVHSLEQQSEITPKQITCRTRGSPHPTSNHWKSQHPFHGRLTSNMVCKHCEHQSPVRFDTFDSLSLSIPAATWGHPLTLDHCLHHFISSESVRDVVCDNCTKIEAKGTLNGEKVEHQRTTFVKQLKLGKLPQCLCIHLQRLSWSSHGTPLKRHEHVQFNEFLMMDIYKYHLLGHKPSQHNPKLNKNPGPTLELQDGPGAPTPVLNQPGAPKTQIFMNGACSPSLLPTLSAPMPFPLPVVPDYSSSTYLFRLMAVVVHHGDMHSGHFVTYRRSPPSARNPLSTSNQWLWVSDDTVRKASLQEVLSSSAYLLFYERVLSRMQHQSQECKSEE

[1] = test system: primary human bronchial fibroblasts from IPF patients (TGF-β1-triggered αSMA); test: Fibroblast-to-myofibroblast transition (FMT) assay, αSMA by high content analysis; conditions: for αSMA inhibition / transdifferentiation (in words): IPF donor fibroblasts, TGF-β1, 3 days, high content imaging; for IC50: Homo sapiens, Fibroblast, 72 h, read-out: αSMA inhibition IC50 (95% CI)

| IC50 (BAP1) [µM] | IC50 (USP25) [µM] | IC50 (USP30) [µM] | SMILES | αSMA inhibition / transdifferentiation (in words) [1] | IC50 [1] [µM] |
| --- | --- | --- | --- | --- | --- |
| 1 to 10 | > 10 | 1 to 10 | N#CN1CCC[C@H]1C(=O)N1CCc2c(-c3c[nH]c4ncccc34)cccc21 [Compound 1] | inhibit transdifferentiation | – |
| – | > 10 | – | C#Cc1cnc2[nH]cc(-c3cccc4c3CCN4C(=O)[C@@H]3CCCN3C#N)c2c1 [Compound 2] | inhibit transdifferentiation | – |
| > 10 | > 10 | > 10 | N#CN1CCC[C@@H]1C(=O)N1CCc2c(-c3c[nH]c4ncccc34)cccc21 [Compound 3] | not and minimal αSMA inhibition | 2 |

| SMILES | IC50 (BAP1) [µM] | IC50 (USP25) [µM] | IC50 (USP30) [µM] | αSMA inhibition / transdifferentiation (in words) [1] | IC50 [1] [µM] |
| --- | --- | --- | --- | --- | --- |
| CC(=O)O/N=C1\C(=O)N(Cc2cc(Cl)ccc2Cl)c2ccc(Cl)cc21 [LDN-57444, reference compound] | > 10 | > 10 | > 10 | not and weak αSMA inhibition | 3.7 |
